Experimental data from US4434788A, “Enhancer of anti-tumor effect” (Yamasa Shoyu Kabushiki Kaisha, priority 1980, dated 1984).
Read-outs that look alike come from different tables or passages of the source.

Assays:
EMT-6 tumors [1] = assay: Enhancement of the effect of anti-tumor agents on EMT-6 tumor in mouse; type: in vivo, BALB/c-strain mice
Experimental: (1) EMT-6 tumor cells (1×10^6) were inoculated intradermally into the right thighs of BALB/c-strain mice (7 weeks old). On the 10th day after inoculation of the tumor cells and thereafter, various enhancer chemicals in physiological saline solutions were administered intrapenitoneally to the mouse every other day in the indicated doses for respective agents. The pharmaceutical agents of the present invention were administered 30 minutes after administration of the anti-tumor agents. After commencement of the treatment with pharmaceutical agents, the tumor sizes were measured every other day and compared with the control group.

EMT-6 tumors [2] = assay: Radiosensitizing effect on EMT-6 tumor in mouse, 1500 rad, tumor size and cure; type: in vivo, BALB/c-strain female mice
[3] = tested on: Chinese hamster-HA-1 cells; assay: Plating efficiency of stationary-phase HA-1 cells given enhancer immediately after 1,000 R X-ray (inhibition of PLDR); type: cell-based; settings: for Plating efficiency after 4 hours: control 2.1; for Plating efficiency after 7 hours: control 3.3
Experimental: (§1) (1) Cells under stationary phase, prepared by planting 2×10^5 cells/well of Chinese hamster-HA-1 cells in a multiwell dish and exchanging cultural medium every day starting on the third day and thereafter were irradiated with 1,000 R of X-rays. Immediately after radiation, 3'-dUrd, and 3'-dGuo in HANKs' balanced salt solution were administered. Then, after elapse of various times, the cells were taken off with trypsin, and a suitable number of cells were transferred into petri dishes for testing colony forming ability and plating efficiencies. The percentages of survival were calculated with corrections by the plating efficiencies with the pharmaceutical agents alone.

[4] = as above; type: cell-based, Chinese hamster; settings: chinese hamster, ha-1 cells, no irradiation, control 51, read-out: Plating efficiency, treated only with enhancer (after 7 hours)
Experimental: as §1

EMT-6 tumors [5] = assay: Radiosensitizing effect on EMT-6 tumor in mouse, cure percentage and TCD50; type: in vivo, BALB/c-strain female mice; settings: 100 mg/kg i.p. after irradiation; for Cure number/Number treated / Cure percentage: >90 days
Experimental: EMT-6 tumor cells (2×10^5) were inoculated intradermally into the right thighs of BALB/c-strain female mice (8 weeks old). When the tumor sizes reached 5.5 to 8.0 mm after inoculation of the tumor cells, irradiation was locally carried out with 1,000 rad to 2,700 rad of 32 MeV electron beam under no anesthesia, and thereafter 3'-dAdo and 3'-dGuo, each dissolved in physiological saline solution, were administered intraperitoneally in a dose of 100 mg/kg. After the treatments, observation was continued for longer than 90 days, and the cure percentages were determined for comparison with the control group. [formula]
(2) TCD50 =50% Tumor control dose

[6] = tested on: potentially lethal damage repair; assay: PLDR-inhibiting / radiosensitizing activity (general statements)
Acute toxicity test = settings: mouse, in vivo, ip, ICR mice, male, one week; estimated
Experimental: A quantity of 3'-dGuo was administered intraperitoneally to ICR mice (male, 8-weeks old, 10 mice for each group) in a dose of 500 mg/kg or 1,000 mg/kg, and the mice were subjected to observation for a week.

[7] = Irradiation 1500 rad + 3'-dGuo 2.0 mg/mouse, irradiation alone 0%
[8] = Irradiation 1500 rad + 3'-dGuo 2.0 mg/mouse, irradiation alone 0/10

Question: Which results are given for `Nc1nc2c(ncn2[C@@H]2O[C@H](CO)C[C@H]2O)c(=O)[nH]1` [3'-dGuo, 3'-deoxyguanosine]?
Answer: Mean tumor diameter 18 days after commencement of treatment (EMT-6 tumors [1]; 3'-dGuo alone 50 mg/kg × 6, n = 10, before treatment 6.75 ± 1.20, control 11.43 ± 2.30): 10.92 ± 3.23 mm; Mean tumor diameter ratio 18 days after commencement of treatment (EMT-6 tumors [1]; 3'-dGuo alone 50 mg/kg × 6, n = 10, control 1.97 ± 0.40): 1.62 ± 0.48; Mean tumor diameter 7 days after commencement of treatment (EMT-6 tumors [1]; 3'-dGuo alone 50 mg/kg × 8, n = 6, before treatment 6.08 ± 0.69, control 7.38 ± 0.69): 7.45 ± 2.07 mm; Mean tumor diameter 14 days after commencement of treatment (EMT-6 tumors [1]; 3'-dGuo alone 50 mg/kg × 8, n = 6, before treatment 6.08 ± 0.69, control 9.20 ± 1.78): 9.10 ± 2.65 mm; Mean tumor diameter ratio 7 days after commencement of treatment (EMT-6 tumors [1]; 3'-dGuo alone 50 mg/kg × 8, n = 6, control 1.27 ± 0.17): 1.21 ± 0.24; Mean tumor diameter ratio 14 days after commencement of treatment (EMT-6 tumors [1]; 3'-dGuo alone 50 mg/kg × 8, n = 6, control 1.57 ± 0.40): 1.48 ± 0.30; Mean tumor diameter 7 days after commencement of treatment (EMT-6 tumors [1]; ACNU 25 mg/kg × 5 combined with 3'-dGuo 50 mg/kg × 5, n = 7, before treatment 6.23 ± 1.04, control 7.38): 5.14 ± 2.29 mm; Mean tumor diameter 14 days after commencement of treatment (EMT-6 tumors [1]; ACNU 25 mg/kg × 5 combined with 3'-dGuo 50 mg/kg × 5, n = 7, before treatment 6.23 ± 1.04, control 9.20): 4.90 ± 1.94 mm; Mean tumor diameter ratio 7 days after commencement of treatment (EMT-6 tumors [1]; ACNU 25 mg/kg × 5 combined with 3'-dGuo 50 mg/kg × 5, n = 7, control 1.27): 0.80 ± 0.22; Mean tumor diameter ratio 14 days after commencement of treatment (EMT-6 tumors [1]; ACNU 25 mg/kg × 5 combined with 3'-dGuo 50 mg/kg × 5, n = 7, control 1.57): 0.76 ± 0.19; Mean tumor diameter 7 days after commencement of treatment (EMT-6 tumors [1]; ADM 2 mg/kg × 8 combined with 3'-dGuo 50 mg/kg × 8, n = 10, before treatment 6.59 ± 1.14, control 7.38): 6.16 ± 2.00 mm; Mean tumor diameter 14 days after commencement of treatment (EMT-6 tumors [1]; ADM 2 mg/kg × 8 combined with 3'-dGuo 50 mg/kg × 8, n = 10, before treatment 6.59 ± 1.14, control 9.20): 6.30 ± 2.54 mm; Mean tumor diameter ratio 7 days after commencement of treatment (EMT-6 tumors [1]; ADM 2 mg/kg × 8 combined with 3'-dGuo 50 mg/kg × 8, n = 10, control 1.27): 0.92 ± 0.18; Mean tumor diameter ratio 14 days after commencement of treatment (EMT-6 tumors [1]; ADM 2 mg/kg × 8 combined with 3'-dGuo 50 mg/kg × 8, n = 10, control 1.57): 0.94 ± 0.31; Mean tumor diameter 18 days after commencement of treatment (EMT-6 tumors [1]; BLM 25 mg/kg × 4 combined with 3'-dGuo 50 mg/kg × 4, n = 10, before treatment 6.65 ± 0.96, control 11.43): 5.60 ± 1.67 mm; Mean tumor diameter ratio 18 days after commencement of treatment (EMT-6 tumors [1]; BLM 25 mg/kg × 4 combined with 3'-dGuo 50 mg/kg × 4, n = 10, control 1.97): 0.84 ± 0.25; Mean tumor diameter 18 days after commencement of treatment (EMT-6 tumors [1]; FT-207 100 mg/kg × 6 combined with 3'-dGuo 50 mg/kg × 6, n = 11, before treatment 6.39 ± 0.94, control 11.43): 3.18 ± 2.38 mm; Mean tumor diameter ratio 18 days after commencement of treatment (EMT-6 tumors [1]; FT-207 100 mg/kg × 6 combined with 3'-dGuo 50 mg/kg × 6, n = 11, control 1.97): 0.50 ± 0.37; Mean tumor diameter 7 days after commencement of treatment (EMT-6 tumors [1]; araC 50 mg/kg × 8 combined with 3'-dGuo 50 mg/kg × 8, n = 7, before treatment 6.04 ± 0.64, control 7.38): 5.96 ± 1.77 mm; Mean tumor diameter 14 days after commencement of treatment (EMT-6 tumors [1]; araC 50 mg/kg × 8 combined with 3'-dGuo 50 mg/kg × 8, n = 7, before treatment 6.04 ± 0.64, control 9.20): 5.34 ± 1.57 mm; Mean tumor diameter ratio 7 days after commencement of treatment (EMT-6 tumors [1]; araC 50 mg/kg × 8 combined with 3'-dGuo 50 mg/kg × 8, n = 7, control 1.27): 0.97 ± 0.19; Mean tumor diameter ratio 14 days after commencement of treatment (EMT-6 tumors [1]; araC 50 mg/kg × 8 combined with 3'-dGuo 50 mg/kg × 8, n = 7, control 1.57): 0.88 ± 0.21; Mean tumor diameter 2 weeks after treatment (EMT-6 tumors [2]; 3'-dGuo 100 mg/kg i.p. after 1500 rad, n = 19, baseline 6.19 ± 0.16 mm, irradiation alone 7.41): 6.82 ± 0.44 mm; Mean tumor diameter 3 weeks after treatment (EMT-6 tumors [2]; 3'-dGuo 100 mg/kg i.p. after 1500 rad, n = 19, baseline 6.19 ± 0.16 mm, irradiation alone 8.29): 4.83 ± 0.80 mm; Diameter ratio 2 weeks after treatment (EMT-6 tumors [2]; 3'-dGuo 100 mg/kg i.p. after 1500 rad, n = 19, irradiation alone 1.09): 1.09 ± 0.06; Diameter ratio 3 weeks after treatment (EMT-6 tumors [2]; 3'-dGuo 100 mg/kg i.p. after 1500 rad, n = 19, irradiation alone 1.17): 0.72 ± 0.12; Volume ratio 2 weeks after treatment (EMT-6 tumors [2]; 3'-dGuo 100 mg/kg i.p. after 1500 rad, n = 19, irradiation alone 1.44): 1.49 ± 0.19; Volume ratio 3 weeks after treatment (EMT-6 tumors [2]; 3'-dGuo 100 mg/kg i.p. after 1500 rad, n = 19, irradiation alone 2.06): 0.92 ± 0.21; Cure (number of mice) (EMT-6 tumors [2]; Irradiation 1500 rad + 3'-dGuo 2.0 mg/mouse, 28 days, irradiation alone 1/10): 6/19; Cure (percent) (EMT-6 tumors [2]; Irradiation 1500 rad + 3'-dGuo 2.0 mg/mouse, 28 days, irradiation alone 10%): 32%; 0.5 to less than 1 of volume ratio excluding cure; Tumor regression rate: slow (percent) (EMT-6 tumors [2]; [7]): 18%; Less than 0.5 of volume ratio excluding cure; Tumor regression rate: rapid (percent) (EMT-6 tumors [2]; [7]): 11%; 0.5 to less than 1 of volume ratio excluding cure; Tumor regression rate: slow (number) (EMT-6 tumors [2]; [8]): 3/19; Less than 0.5 of volume ratio excluding cure; Tumor regression rate: rapid (number) (EMT-6 tumors [2]; [8]): 2/19; 1.0 to less than 2.0 of volume ratio excluding cure; regrowth: slow (number) (EMT-6 tumors [2]; Irradiation 1500 rad + 3'-dGuo 2.0 mg/mouse, irradiation alone 3/10): 6/19; 2.0 or more of volume ratio excluding cure; regrowth: rapid (number) (EMT-6 tumors [2]; Irradiation 1500 rad + 3'-dGuo 2.0 mg/mouse, irradiation alone 6/10): 2/19; 1.0 to less than 2.0 of volume ratio excluding cure; regrowth: slow (percent) (EMT-6 tumors [2]; Irradiation 1500 rad + 3'-dGuo 2.0 mg/mouse, irradiation alone 30%): 32%; 2.0 or more of volume ratio excluding cure; regrowth: rapid (percent) (EMT-6 tumors [2]; Irradiation 1500 rad + 3'-dGuo 2.0 mg/mouse, irradiation alone 60%): 11%; Plating efficiency after 4 hours ([3]; 3'-dGuo 10 μg/ml after 1,000 R): 1.6%; Plating efficiency after 7 hours ([3]; 3'-dGuo 10 μg/ml after 1,000 R): 2.6%; Plating efficiency after 1 hour ([3]; 3'-dGuo 10 μg/ml after 1,000 R, control (0 μg/ml) 1.4): 1.3%; Plating efficiency after 1 hour ([3]; 3'-dGuo 20 μg/ml after 1,000 R, control 1.4): 1.2%; Plating efficiency after 4 hours ([3]; 3'-dGuo 20 μg/ml after 1,000 R): 1.3%; Plating efficiency after 7 hours ([3]; 3'-dGuo 20 μg/ml after 1,000 R): 2.0%; Plating efficiency after 1 hour ([3]; 3'-dGuo 40 μg/ml after 1,000 R, control 1.4): 0.96%; Plating efficiency after 4 hours ([3]; 3'-dGuo 40 μg/ml after 1,000 R): 1.1%; Plating efficiency after 7 hours ([3]; 3'-dGuo 40 μg/ml after 1,000 R): 1.6%; Inhibition of repair (PLDR) after irradiation with X-rays ([3]; HA-1 cells, Table 1): found to inhibit repair (PLDR) after irradiation with X-rays; Toxicity as examined by plating efficiencies ([3]; HA-1 cells, Table 1): Substantially no toxicity was observed; viability at 7 h ([4]; 3'-dGuo 10 μg/ml): 50%; viability at 7 h ([4]; 3'-dGuo 20 μg/ml): 47%; viability at 7 h ([4]; 3'-dGuo 40 μg/ml): 45%; TCD50 (50% Tumor control dose) (EMT-6 tumors [5]; radiation doses given in rad, control 2400): 1250 rad; TCD50 ratio (EMT-6 tumors [5]; relative to control 1.0): 0.52; Cure number/Number treated (EMT-6 tumors [5]; 1,000 rad, control 1/23): 8/26; Cure percentage (EMT-6 tumors [5]; 1,000 rad, control 4%): 31%; Cure number/Number treated (EMT-6 tumors [5]; 1,500 rad, control 8/44): 21/29; Cure percentage (EMT-6 tumors [5]; 1,500 rad, control 18%): 72%; Cure number/Number treated (EMT-6 tumors [5]; 2,100 rad, control 9/24): 22/28; Cure percentage (EMT-6 tumors [5]; 2,100 rad, control 38%): 79%; Cure number/Number treated (EMT-6 tumors [5]; 2,700 rad, control 13/28): 22/25; Cure percentage (EMT-6 tumors [5]; 2,700 rad, control 47%): 88%; Radiosensitizing activity [6]: excellent radiosensitizing activities; LD50 at 168 h (Acute toxicity test): > 1000 mg/kg
